# Experimental data taken from patent US11969402B2, “Compositions and methods for skin rejuvenation” (THE JOHNS HOPKINS UNIVERSITY, priority 2019, dated 2024).
# How the values were obtained:
# [1] = tested on: Wound Induced Hair Neogenesis (WIHN); test: Wound Induced Hair Neogenesis (WIHN), regenerated hair follicles counted by CSLM; type: in vivo, mouse
# Description: (§1) Wound Induced Hair Neogenesis (WIHN). All experiments were followed with the present inventors' WIHN protocol^1,9. Briefly, hair was shaved and a 1.2 cm^2 full-thickness skin on the backs of 21-day old (telogen) male and female mice was removed by sterile scissors. A single treatment of RA (30 μl) (0.1 μg per mouse) (Millipore Sigma, R2625) and BMS493 (30 μl) (0.1 μg per mouse) (Cayman Chemical, #17418) was applied topically onto open wound on WD1 of Tlr3^−/− and WT mice, respectively. Poly (I:C) (50 μl) (5 μg per mouse) (Invivogen, tlrl-pic) was injected under the healed scab on WD3 of WT mice as described before^9,34. On WD20-24, numbers of regenerated hair follicles were visualized and quantified in the re-epithelialized skin by non-invasive confocal scanning laser microscopy (CSLM) (Caliber I.D., VIVASCOPE 1500) as published^1,9. As a vehicle (Control), ethanol (EtOH), dimethylsulfoxide (DMSO), or PBS was treated for RA, BMS493, and Poly (I:C), respectively.
# [2] = tested on: normal human keratinocytes; test: Transcriptome and proteome comparison of keratinocytes treated with Poly (I:C) or RA; type: cell-based; conditions: for identical gene transcripts inhibited by Poly (I:C) and RA: overlap of top ranked 100 downregulated transcripts; for identical gene transcripts induced by Poly (I:C) and RA: overlap of top ranked 100 upregulated transcripts; for overlap of inhibited proteins between Poly (I:C) and RA: top ranked 100 downregulated proteins; for overlap of induced proteins between Poly (I:C) and RA: top ranked 100 upregulated proteins
# Source text: Microarray analysis. RNA isolated from keratinocytes with or without Poly (I:C) (GSE92646) and mouse wound tissues from wild type (C57BL/6NJ) and Tlr3^−/− with BMS493 and RA were submitted to the JHMI Deep Sequencing & Microarray core for Affymetrix® Human Exon 1.0ST and mouse microarray chip according to manufacturer's protocols. Raw gene expression signals in the form of Affymetrix CEL files were extracted and normalized with Partek® Genomics Suite™ software using the Robust Multichip Analysis (RMA) algorithm. Genes were ranked according to fold change of the intervention, and referred to as top or bottom induced if they are at the highest fold change (top) or lowest fold change (bottom). The significance of gene expression was measured by student's t-test analysis. These datasets generated during the current study are available in the NCBI GEO repository as listed above.
# Proteomic analysis. For in vivo samples, wild-type and Tlr3^−/− unwounded and wounded skin where wound regions (center and edge area) were prepared for analysis. For in vitro samples, human primary scalp keratinocytes treated with 0.1 μM retinoic acid (RA) or 0.5 μg per ml Poly (I:C) and control were used. In vivo and in vitro samples were lysed in 5% sodium deoxycholate after washing in phosphate-buffered saline. Lysates were washed, reduced, alkylated and trypsinolyzed on filter as described by Wisniewski et al.^35 and Erde et al.^36. Tryptic peptides were separated on a nanoACQUITY UPLC analytical column (BEH130 C18, 1.7 μm, 75 μm×200 mm, Waters) over a 165 min linear acetonitrile gradient (3-40%) with 0.1% formic acid on a Waters nano-ACQUITY UPLC system, and analyzed on a coupled Thermo Scientific Orbitrap Fusion Tribrid mass spectrometer as described by Williamson et al.^37. Full scans were acquired at a resolution of 120,000, and precursors were selected for fragmentation by higher-energy collisional dissociation (normalized collision energy at 30%) for a maximum 3-second cycle. Tandem mass spectra were searched against a UniProt human reference proteome using MS Amanda algorithm described by Dorfer et al.^38 with a maximum precursor mass error tolerance of 10 ppm. Carbamidomethylation of cysteine and deamidation of asparagine and glutamine were treated as static and dynamic modifications, respectively. Resulting hits were validated at a maximum false discovery rate of 0.01 using a semi-supervised machine learning algorithm Percolator developed by Käll et al.^39. Protein abundance ratios were measured by comparing the MS1 peak volumes of peptide ions, whose identities were confirmed by MS2 sequencing as described above. The Label-free quantifications were performed using an aligned AMRT (Accurate Mass and Retention Time) cluster quantification algorithm Minora (Thermo Fisher Scientific, 2017). Pathway and gene ontology analysis were performed with Qiagen Ingenuity, Panther GO and DAVID databases, as described by Kramer et al.^40, Mi et al.^41, and Huang et al.^42, respectively.
# wounded skin = test: Retinoid levels in mouse skin (LC-MS/MS, HPLC-UV); type: in vivo; conditions: for ROL and RE in wounded skin: WT and Tlr3−/− mice
# Description: as §1
# Tissue preparation from wounded mice. Wild type (C57BL/6J and 6NJ) and Tlr3^−/− mice were wounded as did in WIHN experiments. On PWD11 when wounds are closed, the center and edge of the wound was separated by scissors. Skin samples were immediately frozen and saved in liquid nitrogen for further analysis.
# Determination of Retinoid Levels. For in vitro samples, human scalp keratinocytes were incubated with 0.5 μg per ml of Poly (I:C) for 48 hrs or siRNAs-transfected cells were incubated with 0.1 μg per ml of Poly (I:C) for 48 hrs. For in vivo samples, skin was analyzed from wild-type and Tlr3^−/− unwounded and wounded skin where wound regions (center and edge area) were cut by scalpel. Human skin was analyzed for retinoids with and without CO2 laser treatment as described. All samples were frozen at collection and stored at −80° C. until extraction. For in vitro experiments, media and cell pellets were analyzed separately. For in vivo experiments, tissues were homogenized in saline. Extraction of retinoids was performed under yellow lights using a two-step liquid-liquid extraction that has been described in detail previously using 4,4-dimethyl-RA as an internal standard for RA and retinyl acetate as an internal standard for retinol and total retinyl ester^43-46. For the extraction of retinoids, 1 to 3 ml of 0.025 M KOH in ethanol was added to tissue homogenates (in vivo) or cell culture (in vitro) samples. Then 10 ml hexane (for in vivo tissue sample) or 5 ml hexane (for in vitro cell culture sample) was added to the aqueous ethanol phase. The samples were vortexed and centrifuged for 1 to 3 min at 1000 rpm in a Dynac centrifuge (Becton Dickinson) to facilitate phase separation and pellet precipitated protein. The hexane (top) phase containing nonpolar retinoids (ROL and RE) was removed. 4 M HCl (60-180 μl) was added to the remaining aqueous ethanol phase, samples were vortexed, and then polar retinoids (RA) were removed by extraction with a second 5-10 ml aliquot of hexane as described above. Organic hexane phases were evaporated under nitrogen while heating at approximately 25 to 30° C. in a water bath (model N-EVAP 112, Organomation Associates, Berlin, MA, USA). All samples were resuspended in 60 μl acetonitrile. Only glass containers, pipettes, and syringes were used to handle retinoids.
# Levels of RA were determined by liquid chromatography-multistage tandem mass spectrometry (LC-MRM^3) which is an LC-MS/MS method utilizing two distinct fragmentation events for enhanced selectivity^43. RA was measured using a Shimadzu Prominence UFLC XR liquid chromatography system (Shimadzu, Columbia, MD) coupled to an AB Sciex 5500 or 6500+ QTRAP hybrid triple quadrupole mass spectrometer (AB Sciex, Framingham, MA) using atmospheric pressure chemical ionization (APCI) operated in positive ion mode as previously described^43. […]
Compound,"hair follicle regeneration (WIHN) ([1]; Tlr3−/− mice, topical 0.1 μg per mouse on WD1)","WIHN ([1]; WT mice, supraphysiologic doses of RA)",identical gene transcripts inhibited by Poly (I:C) and RA [2] [%],identical gene transcripts induced by Poly (I:C) and RA [2] [%],overlap of inhibited proteins between Poly (I:C) and RA [2] [%],overlap of induced proteins between Poly (I:C) and RA [2] [%],"tissue RA levels prior to morphogenesis (wounded skin; Tlr3−/− mice, exogenous RA)",ROL and RE in wounded skin (wounded skin; RA vs ethanol),"hair follicle regeneration (WIHN) ([1]; MDA5−/− mice, similar to WT)","new hair follicle formation (WIHN) ([1]; WT mice, single injection 5 μg per mouse on WD3)",amount of RA during wound healing (wounded skin; Tlr3−/− mice),ROL and RE in wounded skin (wounded skin; Poly (I:C) vs PBS),amount of RA during wound healing (wounded skin; WT mice),"RA in center of the wound before morphogenesis (wounded skin; wild type mice, PWD11, center vs edge, not in Tlr3−/− mice)"
"CC1=C(/C=C/C(C)=C/C=C/C(C)=C/C(=O)O)C(C)(C)CCC1 [RA, all-trans-retinoic acid]",modestly increased,do not modify,18,13,36,61,measurable increases,not significant,–,–,–,–,–,–
Polyinosinic-polycytidylic acid [Poly (I:C)],–,–,18,13,36,61,–,–,induces hair follicle regeneration,stimulates new hair follicle formation,much less so,not significant,substantially increased,accumulates more RA
